Active and inactive are the calls of the source. No cut-off for these calls is given here.

Sequence of Urease (P07374 whole entry): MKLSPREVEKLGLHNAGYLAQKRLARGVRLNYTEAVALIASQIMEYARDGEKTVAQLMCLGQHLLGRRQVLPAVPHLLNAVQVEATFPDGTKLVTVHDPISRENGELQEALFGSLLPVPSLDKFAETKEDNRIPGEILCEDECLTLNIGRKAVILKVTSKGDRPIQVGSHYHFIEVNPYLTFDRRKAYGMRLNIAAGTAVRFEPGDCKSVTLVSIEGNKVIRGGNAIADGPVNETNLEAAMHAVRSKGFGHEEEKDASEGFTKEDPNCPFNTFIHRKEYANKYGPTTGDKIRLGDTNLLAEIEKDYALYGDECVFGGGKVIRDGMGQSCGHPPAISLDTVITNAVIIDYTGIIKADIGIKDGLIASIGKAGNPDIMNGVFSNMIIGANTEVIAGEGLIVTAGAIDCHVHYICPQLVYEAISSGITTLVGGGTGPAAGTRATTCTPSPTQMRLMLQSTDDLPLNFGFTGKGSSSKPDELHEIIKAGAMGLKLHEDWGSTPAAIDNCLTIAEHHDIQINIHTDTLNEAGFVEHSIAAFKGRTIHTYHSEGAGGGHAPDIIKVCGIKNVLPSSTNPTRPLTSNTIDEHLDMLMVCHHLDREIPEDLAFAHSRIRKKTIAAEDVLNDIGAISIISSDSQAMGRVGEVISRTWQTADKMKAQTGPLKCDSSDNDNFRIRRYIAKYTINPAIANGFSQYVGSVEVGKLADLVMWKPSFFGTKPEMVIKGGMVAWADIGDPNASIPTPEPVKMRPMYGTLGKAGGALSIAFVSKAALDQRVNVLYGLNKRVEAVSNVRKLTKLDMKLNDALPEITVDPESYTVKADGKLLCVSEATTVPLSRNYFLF

One assay addresses Urease (Canavalia ensiformis, UniProt P07374). Briefly: Inhibition of jack bean urease assessed as ammonia production after 30 mins by indophenol method.
Details: not given
As to `NC(=S)N/N=C/c1ccc(Cl)cc1`, the IC50 (usually the midpoint of a concentration-inhibition curve) stood at 410 nM and the Ki (usually a dissociation constant, usually derived from enzyme kinetics or from competition with a known ligand) is 398 nM.

`NC(N)=S` [THIOUREA]: the inhibitory constant (Ki) stood at 19600 nM.

As to `COc1ccc(/C=N/NC(N)=S)cc1OCc1ccccc1`, the IC50 amounted to 330 nM and the Ki turned out to be 191 nM.

Turning to `NC(=S)N/N=C/C=C/c1ccccc1`, the concentration for half-maximal inhibition (IC50) is 457 nM and the inhibition constant (Ki) came to 407 nM.

With `NC(=S)N/N=C/c1cccc(Cl)c1`, the IC50 was determined as 670 nM and the Ki amounted to 625 nM.

As to `NC(=S)N/N=C/c1ccc(O)cc1`, the concentration for half-maximal inhibition (IC50) amounted to 682 nM and the Ki was 391 nM.

Consider `N/C(S)=N/N=C/c1cccc([N+](=O)[O-])c1`, for which the 50% inhibitory concentration (IC50) was 102 nM and the inhibitory constant (Ki) was 90 nM.

On to `N/C(S)=N/N=C/c1ccc([N+](=O)[O-])cc1`, for which the IC50 is 547 nM and the Ki is 497 nM.

In the case of `N/C(S)=N/N=C/c1cccc(Br)c1`, the IC50 is 767 nM and the Ki was 670 nM.

Regarding `COc1cc(/C=N/NC(N)=S)cc(OC)c1O`, the half-maximal inhibitory concentration (IC50) turned out to be 233 nM and the Ki is 134 nM.

Turning to `NC(=S)N/N=C/c1cccc(O)c1O`, the IC50 turned out to be 220 nM and the inhibition constant Ki was determined as 127 nM.

Take `COc1cc(/C=N/NC(N)=S)cc(OC)c1OC`: the IC50 stood at 989 nM and the inhibition constant Ki was 910 nM.

In the case of `NC(=S)N/N=C/c1ccccc1Cl`, the concentration for half-maximal inhibition (IC50) is 215 nM and the inhibitory constant (Ki) worked out at 170 nM.

On to `COc1cccc(/C=N/NC(N)=S)c1`, for which the IC50 was 177 nM and the Ki stood at 127 nM.

As to `NC(=S)N/N=C/c1ccc(Br)cc1`, the concentration for half-maximal inhibition (IC50) was determined as 707 nM and the Ki is 770 nM.

For `COc1ccc(/C=N/NC(N)=S)cc1`, the IC50 worked out at 887 nM and the Ki was determined as 807 nM.

Regarding `C/C=C/C=N/NC(N)=S`, the IC50 stood at 746 nM and the Ki is 430 nM.

For the compound `NC(=S)N/N=C/c1ccccc1OCc1ccccc1`, the IC50 came to 263 nM and the Ki came to 152 nM.

As to `CN(C)c1ccc(/C=N/NC(N)=S)cc1`, the IC50 was found to be 127 nM and the inhibitory constant (Ki) is 122 nM.

Another assay deals with Urease (Canavalia ensiformis) (UniProt P07374). To be noted: 0.01 to 0.001 uM.
Sequence of Urease (Canavalia ensiformis) (P07374 whole entry, looked up): as the sequence (P07374 whole entry) above
Regarding `N/C(S)=N/N=C/c1cccc([N+](=O)[O-])c1`, the inhibition result is “Active”.

Source of the values: ChEMBL document CHEMBL1909545, “Synthesis, biological assay in vitro and molecular docking studies of new Schiff base derivatives as potential urease inhibitors” (Eur J Med Chem, 2011).
